Results as given in patent US11903386B2, “Strigolactone analogs and their usage in plant control” (King Abdullah University of Science and Technology, priority 2016, dated 2024).

Legend:
Striga = assay: Trial in Burkina Faso, wooden boxes with artificially infested soil and pearl millet host; format: in vivo; conditions: 1×1 m^2 boxes, artificially infested soil, pearl millet host
Description: Very recently, the activity of MP1 was also evaluated in a trial conducted in Burkina Faso, in which 1×1 m^2 wooden boxes were used which were filled with artificially infested soil and pearl millet as a host.

rice leaf segments = assay: Dark-induced leaf senescence of rice leaf segments; format: in vivo, O. sativa, var. Shiokari
Description: One week old rice (O. sativa, var. Shiokari) seedlings were established as mentioned above. Uniform seedlings were transferred to 50 ml tubes containing half strength Hoaglands nutrient solution for 7 days and grown in an incubator under white fluorescent light (130-180 μM m^−2 s^−1) with 16 h:8 h (L/D) at 28° C. for one week. Leaf segments of 2 cm were cut from middle part of third leaves of rice plants. Each segment was put in a well (in 24-well plates) containing 2 ml of 2.5 mM MES buffer with 0.05% Tween-20, and incubated at 30° C. in the dark for 7 days. After application of MPs, color change, chlorophyll content, ion leakage and gene expression were monitored daily for 7 days.

COC(=O)/C(=C/OC1C=C(C)C(=O)O1)c1ccc([N+](=O)[O-])cc1 (racemic) [MP1, (E)-methyl 3-(4-methyl-5-oxo-2,5-dihydrofuran-2-yloxy)-2-(4-nitrophenyl)acrylate]
Germination activity compared with GR24 (Striga): significantly higher germination activity than GR24

COC(=O)/C(=C/OC1C=C(C)C(=O)O1)c1ccccc1 (racemic) [MP3, (E)-methyl 3-(4-methyl-5-oxo-2,5-dihydrofuran-2-yloxy)-2-phenylacrylate]
Transcript levels of Senescence Associated Genes Osl20 and Osl295 (rice leaf segments; after 5 days of treatment): more pronounced in MP3 treated samples | Change in leaf color, time relative to control (rice leaf segments; dark, leaf segments): about two days earlier than the control | Change in leaf color, day observed (rice leaf segments; dark, leaf segments monitored 7 days): already on the third day after treatment | Ion leakage compared to the control (rice leaf segments; first five days): did not detect a difference | Ion leakage compared to the control (rice leaf segments; sixth and seventh day): striking increase | Chlorophyll content (rice leaf segments; third day): clear reduction
